Converted amounts (≈) assume the structure as drawn. Like-named read-outs stand apart in the source and are kept apart here.
What was measured:
Candida albicans = experiment: In vitro activity against Candida albicans (minimum inhibition concentration); assay type: cell-based; settings: Yeast Nitrogen Base (YNB) broth; salt form given per compound
Experimental: The antifungal activity of the compounds of the present invention may be evaluated by determining the minimum fungistatic (inhibition) concentration (m.i.c.). This test is usually performed by preparing a series of plates or tubes containing a suitable nutrient medium, each plate or tube also containing a different concentration of the test compound and then inoculating the medium with the fungal species. After an incubation period the plates are examined visually for the presence or absence of fungal growth. The m.i.c. is the minimum concentration required to prevent fungal growth.
Minimum Inhibition Concentrations (MICs) of compounds of the present invention vs. C. albicans were determined.
The solution was filter sterilised with a 0.45 μm membrane filter unit and was then further diluted with sterile distilled water (SDW)-YNB solution: SDW (1:5).

Trichomonas vaginalis = experiment: In vitro activity against T. vaginalis (IC50 determination); assay type: cell-based; settings: 37° C., aerobic, Modified Diamonds Medium
Experimental: The antiprotozoal e.g. antitrichomonal, activity of the compounds of the present invention may be assessed by conventional methods, for example by determining the minimum inhibition concentration (m.i.c.) or 50% inhibition level (IC50).
Modified Diamonds Medium (MDM) was prepared according to the method described in J. Kulda et al., American Journal of Obstetrics and Gynaecology 1970, 108, 908-18 and 4 cm^3 of the medium was pipetted into each of a series of tubes (usually 16 tubes). To each tube was added 0.5 cm^3 of varying concentration of a solution (usually in ethanol+MDM) or suspension of the test drug. Duplicate tubes for each drug concentration were prepared.
Finally, to each tube was added T. vaginalis (0.5 cm^3) at a concentration of 1×10^5 cm^-3,) to give a final trichomonad concentration of 1×10^4 cm^-3 in each tube. The tubes were then incubated (aerobically) at 37° C. and the resulting trichomonad numbers were counted at 24 and 48 hours using a haemacytometer.
This information was then used to determine the 50% inhibition concentration (IC50).

[1] = 24 hr, 1×10^4 trichomonads cm^-3, read-out: IC50 24 hr
[2] = 48 hr, 1×10^4 trichomonads cm^-3, read-out: IC50 48 hr

| MIC (Candida albicans) | IC50 (Trichomonas vaginalis; [1]) | IC50 (Trichomonas vaginalis; [2]) | Compound |
| --- | --- | --- | --- |
| 1.6 µg/mL | 1.3 µg/mL (≈ 4.17 µM) | 1.8 µg/mL (≈ 5.78 µM) | CCCCOc1ccc2c(c1)CCN=C2/C=C/C1CCCCC1 [Example 1, (E)-6-Butyloxy-1-(2-cyclohexylvinyl)-3,4-dihydroisoquinoline] |
| 1.6 µg/mL | 1 µg/mL (≈ 2.89 µM) | 1.8 µg/mL (≈ 5.21 µM) | C(=CC1CCCCC1)C1=NCCc2cc(OCc3ccccc3)ccc21 [Example 2, 6-Benzyloxy-1-[2-cyclohexylvinyl]-3,4-dihydroisoquinoline] |
| 6.2 µg/mL | 3.7 µg/mL (≈ 12.1 µM) | 8.8 µg/mL (≈ 28.8 µM) | CCCCOc1ccc2c(c1)CCN=C2C=Cc1ccccc1 [Example 3, 6-Butyloxy-3,4-dihydro-1-styrylisoquinoline] |
| 6.2 µg/mL | 6.1 µg/mL (≈ 19.6 µM) | 6.4 µg/mL (≈ 20.5 µM) | CC(C)COc1ccc2c(c1)CCN=C2/C=C/C1CCCCC1 [Example 5, (E)-1-(2-Cyclohexylvinyl)-3,4-dihydro-6-(2-methylpropyloxy)isoquinoline] |
| 25 µg/mL | 0.4 µg/mL (≈ 1.34 µM) | 0.4 µg/mL (≈ 1.34 µM) | CCCOc1ccc2c(c1)CCN=C2/C=C/C1CCCCC1 [Example 6, (E)-1-(2-Cyclohexylvinyl)-3,4-dihydro-6-propyloxyisoquinoline] |
| 6.2 µg/mL | 1.5 µg/mL (≈ 4.54 µM) | 2.5 µg/mL (≈ 7.57 µM) | CCCCOc1ccc2c(c1)CCN=C2C=Cc1ccc(C#N)cc1 [Example 13, 6-Butyloxy-3,4-dihydro-1-(4-cyanostyryl)isoquinoline] |
| 3.1 µg/mL | – | – | CCCCOc1ccc2c(c1)CCN=C2C=Cc1ccc(Cl)cc1 [Example 22, 6-Butyloxy-1-(4-chlorostyryl)-3,4-dihydroisoquinoline] |
| 6.2 µg/mL | 1.1 µg/mL (≈ 2.78 µM) | 2.3 µg/mL (≈ 5.82 µM) | CCCCOc1ccc2c(c1)CCN=C2/C=C/c1c(F)c(F)c(F)c(F)c1F [Example 23, (E)-6-Butyloxy-1-(2-pentafluorophenyl)vinyl-3,4-dihydroisoquinoline] |
| 6.2 µg/mL | – | – | CCCOc1ccc2c(c1)CCN=C2C=Cc1ccc(Cl)cc1Cl [Example 31, 1-(2,4-Dichlorostyryl)-3,4-dihydro-6-propyloxyisoquinoline] |
| 1.6 µg/mL | – | – | Clc1ccccc1C=CC1=NCCc2cc(OCC3CCCCC3)ccc21 [Example 39, 1-(2-Chlorostyryl)-6-cyclohexylmethoxy-3,4-dihydroisoquinoline] |
| 6.2 µg/mL | 2.2 µg/mL (≈ 6.51 µM) | 2.8 µg/mL (≈ 8.29 µM) | C=CCCOc1ccc2c(c1)CCN=C2C=Cc1ccc(Cl)cc1 [Example 45, 6-(But-3-enyloxy)-1-(4-chlorostyryl)-3,4-dihydroisoquinoline] |
| 6.2 µg/mL | – | – | CC(C)CCOc1ccc2c(c1)CCN=C2C=Cc1ccc(Cl)cc1 [Example 50, 1-(4-Chlorostyryl)-3,4-dihydro-6-(3-methylbutyloxy)-isoquinoline] |
| 6.2 µg/mL | 2.9 µg/mL (≈ 7.96 µM) | 3.2 µg/mL (≈ 8.78 µM) | N#Cc1ccc(C=CC2=NCCc3cc(OCc4ccccc4)ccc32)cc1 [Example 52, 6-Benzyloxy-1-(4-cyanostyryl)-3,4-dihydroisoquinoline] |
| 6.2 µg/mL | – | – | Clc1ccc(C=CC2=NCCc3cc(OCc4ccccc4)ccc32)cc1 [Example 57, 6-Benzyloxy-1-(4-chlorostyryl)-3,4-dihydroisoquinoline] |
| 25 µg/mL | – | – | CCCCOc1ccc2c(c1)CCN=C2/C=C/c1ccsc1 [Example 107, (E)-6-Butyloxy-3,4-dihydro-1-(3-thienyl)vinylisoquinoline] |
| 25 µg/mL | 1.5 µg/mL (≈ 5.57 µM) | 1.6 µg/mL (≈ 5.94 µM) | C/C=C/C=C/C1=NCCc2cc(OCCCC)ccc21 [Example 128, (E,E)-6-Butyloxy-3,4-dihydro-1-(penta-1,3-dienyl)isoquinoline] |
| 1.6 µg/mL | – | – | CCCCOc1ccc2c(c1)CCN=C2C=Cc1ccc(C)s1 [Example 144, 6-Butyloxy-3,4-dihydro-1-(2-(5-methyl-2-thienyl)vinyl)isoquinoline] |

| MIC (Candida albicans) | IC50 (Trichomonas vaginalis; [1]) | IC50 (Trichomonas vaginalis; [2]) | Compound |
| --- | --- | --- | --- |
| – | 0.2 µg/mL (≈ 0.52 µM) | 0.3 µg/mL (≈ 0.781 µM) | CCCCOc1ccc2c(c1)CCN=C2/C(Br)=C/c1ccccc1 [Example 147, (Z)-6-Butyloxy-1-(1-bromo-2-phenylvinyl)-3,4-dihydroisoquinoline] |
| – | 0.2 µg/mL (≈ 0.588 µM) | 0.2 µg/mL (≈ 0.588 µM) | CCCCOc1ccc2c(c1)CCN=C2/C(Cl)=C/c1ccccc1 [Example 150] |
| – | 0.3 µg/mL (≈ 0.802 µM) | 0.3 µg/mL (≈ 0.802 µM) | Cl/C(=C\c1ccccc1)C1=NCCc2cc(OCc3ccccc3)ccc21 [Example 151, (Z)-6-Benzyloxy-1-(1-chloro-2-phenylvinyl)-3,4-dihydroisoquinoline] |
| – | 0.3 µg/mL (≈ 0.939 µM) | 0.5 µg/mL (≈ 1.57 µM) | CCCCOc1ccc2c(c1)CCN=C2/C(C)=C/c1ccccc1 [Example 153, (E)-6-Butyloxy-3,4-dihydro-1-(2-phenyl-1-methylvinyl)isoquinoline] |
| – | 1.2 µg/mL (≈ 2.87 µM) | 2.2 µg/mL (≈ 5.26 µM) | CCCOc1cc2c(cc1OCCC)C(C=Cc1ccc(Cl)cc1Cl)=NCC2 [Example 155, 1-(2,4-Dichlorostyryl)-3,4-dihydro-6,7-dipropyloxyisoquinoline] |
| – | 1.8 µg/mL (≈ 4.37 µM) | 2.1 µg/mL (≈ 5.1 µM) | CCCCOc1cc2c(cc1OCCCC)C(C=Cc1ccc(Cl)cc1)=NCC2 [Example 157, 6,7-Dibutyloxy-1-(4-chlorostyryl)-3,4-dihydroisoquinoline] |
| – | 0.8 µg/mL (≈ 1.85 µM) | 1.1 µg/mL (≈ 2.54 µM) | CCCOc1cc2c(cc1OCCC)C(C=Cc1ccc(Cl)cc1Cl)=NC(C)C2 (centres unmarked) [Example 158, 1-(2,4-Dichlorostyryl)-3,4-dihydro-3-methyl-6,7-dipropyloxyisoquinoline] |
| – | 0.6 µg/mL (≈ 1.43 µM) | 1 µg/mL (≈ 2.39 µM) | CCCCOc1cc2c(cc1OCC)C(C=Cc1ccc(Cl)cc1Cl)=NCC2 [Example 160, 6-Butyloxy-1-(2,4-dichlorostyryl)-7-ethoxy-3,4-dihydroisoquinoline] |
| – | 0.7 µg/mL (≈ 1.67 µM) | 1.4 µg/mL (≈ 3.35 µM) | CCCCOc1cc2c(cc1OCC)CCN=C2C=Cc1ccc(Cl)cc1Cl [Example 161, 7-Butyloxy-1-(2,4-dichlorostyryl)-6-ethoxy-3,4-dihydroisoquinoline] |
| – | 9 µg/mL (≈ 19.2 µM) | 10 µg/mL (≈ 21.4 µM) | CCCCCCOc1cc2c(cc1OCCCCCC)C(C=Cc1ccc(Cl)cc1)=NCC2 [Example 165, 1-(4-Chlorostyryl)-6,7-dihexyloxy-3,4-dihydroisoquinoline] |
| – | 1 µg/mL (≈ 1.94 µM) | 3.2 µg/mL (≈ 6.22 µM) | Clc1ccc(C=CC2=NCCc3cc(OCc4ccccc4)c(OCc4ccccc4)cc32)c(Cl)c1 [Example 170, 6,7-Bisbenzyloxy-1-(2,4-dichlorostyryl)-3,4-dihydroisoquinoline] |
| – | 0.8 µg/mL (≈ 1.8 µM) | 1.8 µg/mL (≈ 4.04 µM) | C(=Cc1ccccc1)C1=NCCc2c1ccc(OCc1ccccc1)c2OCc1ccccc1 [Example 171, 5,6-Bis(benzyloxy)-3,4-dihydro-1-styrylisoquinoline] |
| – | 0.7 µg/mL (≈ 1.46 µM) | 2 µg/mL (≈ 4.17 µM) | Clc1ccc(C=CC2=NCCc3c2ccc(OCc2ccccc2)c3OCc2ccccc2)cc1 [Example 172, 5,6-Bis(benzyloxy)-1-(4-chlorostyryl)-3,4-dihydroisoquinoline] |
| – | 1.4 µg/mL (≈ 3.79 µM) | 2 µg/mL (≈ 5.41 µM) | COc1ccc(OCc2ccccc2)c2c1C(C=Cc1ccccc1)=NCC2 [Example 174, 5-Benzyloxy-3,4-dihydro-8-methoxy-1-styryl-isoquinoline] |
| – | 0.4 µg/mL (≈ 1.01 µM) | 1 µg/mL (≈ 2.54 µM) | COc1ccc(OCc2ccccc2)c2c1C(C=Cc1ccc(C#N)cc1)=NCC2 [Example 175, 5-Benzyloxy-1-(4-cyanostyryl)-3,4-dihydro-8-methoxyisoquinoline] |
| – | 1.7 µg/mL (≈ 3.81 µM) | 3.1 µg/mL (≈ 6.95 µM) | CCCc1c2c(cc(OC)c1OCc1ccccc1)C(C=Cc1ccc(Cl)cc1)=NCC2 [Example 176, 6-Benzyloxy-1-(4-chlorostyryl)-3,4-dihydro-7-methoxy-5-propylisoquinoline] |
| – | 1 µg/mL (≈ 2.81 µM) | 1.6 µg/mL (≈ 4.5 µM) | CCCc1c(O)c(OC)cc2c1CCN=C2C=Cc1ccccc1Cl [Example 180, 1-(2-Chlorostyryl)-3,4-dihydro-6-hydroxy-7-methoxy-5-propylisoquinoline] |
